Test system: 4 PI3K isoforms (Human recombinant GST-PI3K)
Assay: PI3K scintillation proximity assay, best IC50 obtained with the four isoforms (alpha, beta, delta, gamma)
Assay type: biochemical
Conditions: best IC50 obtained with the four isoforms of PI3K; read-out: Best potency measured on the 4 PI3K isoforms

Row | IC50 [µM] | Compound
1 | 0.394 | O=C(c1nn(-c2cccc(CN3CCCCC3)c2)c2c1CS(=O)(=O)c1ccccc1-2)N1CCOCC1 [Example 178, 3-(Morpholin-4-ylcarbonyl)-1-[3-(piperidin-1-ylmethyl)phenyl]-1,4-dihydrothiochromeno[4,3-c]pyrazole 5,5-dioxide]
2 | 1.11 | CN(C)Cc1cccc(-n2nc(C(=O)N3CCOCC3)c3c2-c2ccccc2S(=O)(=O)C3)c1 [Example 179, N,N-Dimethyl-1-{3-[3-(morpholin-4-ylcarbonyl)-5,5-dioxidothiochromeno[4,3-c]pyrazol-1 (4H)-yl]phenyl}methanamine]
3 | 1.78 | CS(=O)(=O)Nc1cccc(-n2nc(C(=O)N3CCOCC3)c3c2-c2ccccc2S(=O)(=O)C3)c1 [Example 180, N-{3-[3-(Morpholin-4-ylcarbonyl)-5,5-dioxidothiochromeno[4,3-c]pyrazol-1 (4H)-yl]phenyl)methanesulfonamide]
4 | 4.95 | O=C(c1nn(-c2cccc(N3CCCC3)c2)c2c1CS(=O)(=O)c1ccccc1-2)N1CCOCC1 [Example 181, 3-(Morpholin-4-ylcarbonyl)-1-(3-pyrrolidin-1-ylphenyl)-1,4-dihydrothiochromeno[4,3-c]pyrazole 5,5-dioxide]
5 | 1.2 | Cc1nnc(-c2cccc(-n3nc(C(=O)N4CCOCC4)c4c3-c3ccccc3S(=O)(=O)C4)c2)o1 [Example 182, 1-[3-(5-Methyl-1,3,4-oxadiazol-2-yl)phenyl]-3-(morpholin-4-ylcarbonyl)-1,4-dihydrothiochromeno[4,3-c]pyrazole 5,5-dioxide]
6 | 0.661 | Cc1nnc(-c2cccc(-n3nc(C(=O)N4CCOCC4)c4c3-c3ccccc3S(=O)(=O)C4)c2)s1 [Example 183, 1-[3-(5-Methyl-1,3,4-thiadiazol-2-yl)phenyl]-3-(morpholin-4-ylcarbonyl)-1,4-dihydrothiochromeno[4,3-c]pyrazole 5,5-dioxide]
7 | 0.3 | Cc1noc(C)c1-c1cccc(-n2nc(C(=O)N3CCOCC3)c3c2-c2ccccc2S(=O)(=O)C3)c1 [Example 184, 1-[3-(3,5-Dimethylisoxazol-4-yl)phenyl]-3-(morpholin-4-ylcarbonyl)-1,4-dihydrothiochromeno[4,3-c]pyrazole 5,5-dioxide]
8 | 0.184 | Cn1cc(-c2cccc(-n3nc(C(=O)N4CCOCC4)c4c3-c3ccccc3S(=O)(=O)C4)c2)cn1 [Example 185, 1-[3-(1-Methyl-1H-pyrazol-4-yl)phenyl]-3-(morpholin-4-ylcarbonyl)-1,4-dihydrothiochromeno[4,3-c]pyrazole 5,5-dioxide]
9 | 0.454 | Nc1ncc(-c2cccc(-n3nc(C(=O)N4CCOCC4)c4c3-c3ccccc3S(=O)(=O)C4)c2)cn1 [Example 186, 5-{3-[3-(Morpholin-4-ylcarbonyl)-5,5-dioxidothiochromeno[4,3-c]pyrazol-1 (4H)-yl]phenyl}pyrimidin-2-amine]
10 | 0.193 | O=C(c1nn(-c2cccc(-c3ccncc3)c2)c2c1CS(=O)(=O)c1ccccc1-2)N1CCOCC1 [Example 187, 3-(Morpholin-4-ylcarbonyl)-1-(3-pyridin-4-ylphenyl)-1,4-dihydrothiochromeno[4,3-c]pyrazole 5,5-dioxide]
11 | 0.338 | O=C(c1nn(-c2cccc(-c3cnn(CCN4CCOCC4)c3)c2)c2c1CS(=O)(=O)c1ccccc1-2)N1CCOCC1 [Example 188, 3-(Morpholin-4-ylcarbonyl)-1-{3-[1-(2-morpholin-4-ylethyl)-1H-pyrazol-4-yl]phenyl)-1,4-dihydrothiochromeno[4,3-c]pyrazole 5,5-dioxide]
12 | 4.22 | O=C(c1nn(-c2cccc(-c3nccs3)c2)c2c1CS(=O)(=O)c1ccccc1-2)N1CCOCC1 [Example 189, 3-(Morpholin-4-ylcarbonyl)-1-[3-(1,3-thiazol-2-yl)phenyl]-1,4-dihydrothiochromeno[4,3-c]pyrazole 5,5-dioxide]
13 | 0.681 | COCCN1CCC(Cn2nc(C(=O)N3CCOCC3)c3c2-c2ccccc2S(=O)(=O)C3)CC1 [Example 190, 1-{[1-(2-Methoxyethyl)piperidin-4-yl]methyl}-3-(morpholin-4-ylcarbonyl)-1,4-dihydrothiochromeno[4,3-c]pyrazole 5,5-dioxide]
14 | 2.83 | CC(=O)N1CCC(Cn2nc(C(=O)N3CCOCC3)c3c2-c2ccccc2S(=O)(=O)C3)CC1 [Example 191, 1-[(1-Acetylpiperidin-4-yl)methyl]-3-(morpholin-4-ylcarbonyl)-1,4-dihydrothiochromeno[4,3-c]pyrazole 5,5-dioxide]
15 | 1.7 | O=C(c1nn(-c2ccccc2)c2c1CS(=O)(=O)c1sccc1-2)N1CCOCC1 [Example 192, 3-(Morpholin-4-ylcarbonyl)-1-phenyl-1,4-dihydrothieno[3′,2′:5,6]thiopyrano[4,3-c]pyrazole 5,5-dioxide]
16 | 0.362 | O=C(c1nn(C2CCCC(C(=O)N3CCCCC3)C2)c2c1CS(=O)(=O)c1ccccc1-2)N1CCOCC1 (stereo not drawn) [Example 193, 3-(Morpholin-4-ylcarbonyl)-1-[3-(piperidin-1-ylcarbonyl)cyclohexyl]-1,4-dihydrothiochromeno[4,3-c]pyrazole 5,5-dioxide]
17 | 2.69 | Cn1cc(-n2nc(C(=O)N3CCOCC3)c3c2-c2ccsc2S(=O)(=O)C3)ccc1=O [Example 195, 1-Methyl-5-[3-(morpholin-4-ylcarbonyl)-5,5-dioxidothieno[3′,2′:5,6]thiopyrano[4,3-c]pyrazole-1 (4H)-yl]pyridin-2 (1H)-one]

Row | IC50 [µM] | Compound
18 | 2.69 | Cc1noc(-c2cccc(-n3nc(C(=O)N4CCOCC4)c4c3-c3ccccc3S(=O)(=O)C4)c2)n1 [Example 196, 1-[3-(3-Methyl-1,2,4-oxadiazol-5-yl)phenyl]-3-(morpholin-4-ylcarbonyl)-1,4-dihydrothiochromeno[4,3-c]pyrazole 5,5-dioxide]
19 | 0.826 | O=C(c1nn(-c2cccc(-c3ccoc3)c2)c2c1CS(=O)(=O)c1ccccc1-2)N1CCOCC1 [Example 197, 1-[3-(3-Furyl)phenyl]-3-(morpholin-4-ylcarbonyl)-1,4-dihydrothiochromeno[4,3-c]pyrazole 5,5-dioxide]
20 | 0.28 | O=C(c1nn(-c2cccc(-c3cccnc3)c2)c2c1CS(=O)(=O)c1ccccc1-2)N1CCOCC1 [Example 198, 3-(Morpholin-4-ylcarbonyl)-1-(3-pyridin-3-ylphenyl)-1,4-dihydrothiochromeno[4,3-c]pyrazole 5,5-dioxide]
21 | 2.59 | CCc1nc(-c2cccc(-n3nc(C(=O)N4CCOCC4)c4c3-c3ccccc3S(=O)(=O)C4)c2)no1 [Example 199, 1-[3-(5-Ethyl-1,2,4-oxadiazol-3-yl)phenyl]-3-(morpholin-4-ylcarbonyl)-1,4-dihydrothiochromeno[4,3-c]pyrazole 5,5-dioxide]
22 | 4.86 | Cc1nc(-c2cccc(-n3nc(C(=O)N4CCOCC4)c4c3-c3ccccc3S(=O)(=O)C4)c2)n[nH]1 [Example 200, 1-[3-(5-Methyl-1H-1,2,4-triazol-3-yl)phenyl]-3-(morpholin-4-ylcarbonyl)-1,4-dihydrothiochromeno[4,3-c]pyrazole 5,5-dioxide]
23 | 0.302 | O=C(c1nn(C2CCCCC2)c2c1CS(=O)(=O)c1sccc1-2)N1CCOCC1 [Example 201, 1-Cyclohexyl-3-(morpholin-4-ylcarbonyl)-1,4-dihydrothieno[3′,2′:5,6]thiopyrano[4,3-c]pyrazole 5,5-dioxide]
24 | 1.74 | Cc1cccc2c1S(=O)(=O)Cc1c(C(=O)N3CCOCC3)nn(-c3ccccc3)c1-2 [Example 202, 6-Methyl-3-(morpholin-4-ylcarbonyl)-1-phenyl-1,4-dihydrothiochromeno[4,3-c]pyrazole 5,5-dioxide]
25 | 1.64 | O=C(c1nn(-c2ccc3[nH]ncc3c2)c2c1CS(=O)(=O)c1ccccc1-2)N1CCOCC1 [Example 203, 1-(1H-Indazol-5-yl)-3-(morpholin-4-ylcarbonyl)-1,4-dihydrothiochromeno[4,3-c]pyrazole 5,5-dioxide]
26 | 2.08 | O=C(c1nn(-c2ccc3nn(Cc4ccccc4)cc3c2)c2c1CS(=O)(=O)c1ccccc1-2)N1CCOCC1 [Example 204, 1-(2-Benzyl-2H-indazol-5-yl)-3-(morpholin-4-ylcarbonyl)-1,4-dihydrothiochromeno[4,3-c]pyrazole 5,5-dioxide]
27 | 0.641 | CN(C)S(=O)(=O)c1cccc(-n2nc(C(=O)N3CCOCC3)c3c2-c2ccccc2S(=O)(=O)C3)c1 [Example 207, N,N-Dimethvl-3-[3-(morpholin-4-ylcarbonyl)-5,5-dioxidothiochromeno[4,3-c]pyrazol-1 (4H)-yl]benzenesulfonamide]
28 | 2.65 | CN1CCC(Cn2nc(C(=O)N3CCOCC3)c3c2-c2ccccc2S(=O)(=O)C3)CC1 [Example 208, 1-[(1-Methylpiperidin-4-yl)methyl]-3-(morpholin-4-ylcarbonyl)-1,4-dihydrothiochromeno[4,3-c]pyrazole 5,5-dioxide]
29 | 3.59 | O=C(Nc1cccc(-n2nc(C(=O)N3CCOCC3)c3c2-c2ccccc2S(=O)(=O)C3)c1)N1CCOCC1 [Example 209, N-{3-[3-(Morpholin-4-ylcarbonyl)-5,5-dioxidothiochromeno[4,3-c]pyrazol-1 (4H)-yl]phenyl)morpholine-4-carboxamide]
30 | 0.4 | O=C(c1nn(-c2ccc(CN3CCOCC3)cc2)c2c1CS(=O)(=O)c1ncccc1-2)N1CCOCC1 [Example 211]
31 | 3.51 | CNc1cccc2c1S(=O)(=O)Cc1c(C(=O)N3CCOCC3)nn(-c3ccccc3)c1-2 [Example 212, N-Methyl-3-(morpholin-4-ylcarbonyl)-1-phenyl-1,4-dihydrothiochromeno[4,3-c]pyrazol-6-amine 5,5-dioxide]
32 | 4.19 | COCc1noc(-c2cccc(-n3nc(C(=O)N4CCOCC4)c4c3-c3ccccc3S(=O)(=O)C4)c2)n1 [Example 214, 1-{3-[3-(Methoxymethyl)-1,2,4-oxadiazol-5-yl]phenyl)-3-(morpholin-4-ylcarbonyl)-1,4-dihydrothiochromeno[4,3-c]pyrazole 5,5-dioxide]
33 | 0.912 | O=C(c1nn(C2CCC(CN3CCOCC3)CC2)c2c1CS(=O)(=O)c1ccccc1-2)N1CCOCC1 (stereo not drawn) [Example 215, 3-(Morpholin-4-ylcarbonyl)-1-[4-(morpholin-4-ylmethyl)cyclohexyl]-1,4-dihydrothiochromeno[4,3-c]pyrazole 5,5-dioxide]

From patent US9073940B2, “Tricyclic pyrazol amine derivatives” (MERCK SERONO SA, priority 2009, dated 2015)
